# Reference: patent US20130065818A1, “Arylamide Compounds And Compositions And Uses Thereof” (POLYMEDIX, priority 2006, published 2013)
# Where “and” joins values, the source holds several entries; their conditions need not be identical. Identical values can stand only once.
# How the values were obtained:
# [1] = system: fluoroquinolone-resistant, methicillin-resistant Staphylococcus aureus (K950); test: NZW rabbit keratitis model, corneal colony counts; type: in vivo; details: Example 11; for Log10 CFU/ml, Mean / Log10 CFU/ml, Median: count 3; for Log10 CFU/ml / CFU/ml: individual cornea; for CFU/ml: Inoculum = 1098 CFU/cornea
# Text: (§1) One purpose of the following experiments was to compare the efficacy of 1% Oligomer 2, 0.5% Oligomer 2, and 5% vancomycin in the treatment of a fluoroquinolone-resistant, methicillin-resistant Staphylococcus aureus infection in the NZW rabbit keratitis model with or without intact corneal epithelia.
# Nothing was done to the right eyes.
# as §1, with “0.25%” for “1%”, “with and without 0.005% benzalkonium chloride,” for “0.5% Oligomer 2,”, “epithelia. The 0.005% benzalkonium chloride has been added to try to increase the penetration of 0.25% Oligomer 2 through the corneal epithelium.” for “epithelia.”
# One purpose of the following experiments was to determine the efficacy of 0.25% Oligomer 4, with and without 200 μM Farnesol, and 200 μM Farnesol in the treatment of a fluoroquinolone-resistant and methicillin-resistant Staphylococcus aureus infection in the NZW rabbit keratitis model with or without intact corneal epithelia. The 200 μM Farnesol has been added to try to increase the efficacy and penetration of 0.25% Oligomer 4 through the corneal epithelium.
# [2] = NZW rabbit keratitis model, clinical evaluation (Total Ocular Score); details: for Chemosis / Conj. / Corneal Edema / Corneal Infiltrate / Discharge / Iritis / Total Score: Example 11, Oligomer 4 / Farnesol study; for Chemosis / Conj. / Corneal Edema / Corneal Infiltrate / Discharge / Iritis / Total Score / Total Ocular Score: individual eye; for Total Ocular Score: Example 12 data display
# Protocol: Fifteen rabbits were received from Myrtles' Rabbitry, Thompson Station, TN. The clinical isolate of fluoroquinolone-resistant, methicillin-resistant (MRSA) Staphylococcus aureus (K950) was subcultured on 5% sheep blood agar and incubated at 37° C. in 6% CO2 overnight. The next morning, the MRSA strain was suspended in sterile trypticase soy broth to a 0.5 McFarland Standard, containing approximately 5×10^8 cfu/ml of bacteria. The absorbance of the suspension was measured at 650 nm using a Beckman DU-70 spectrophotometer. OD readings of 0.07 corresponded to 5×10^8 cfu/ml of bacteria. This concentration was appropriately diluted in sterile trypticase soy broth to provide the inoculum of approximately 1,000 (1.0×10^3) cfu/eye in 25 μl. Colony counts were performed on the inoculum to determine the actual cfu inoculated. Following general anesthesia with ketamine and xylazine and topical anesthesia with proparacaine and prior to bacterial inoculation in the left eyes, 6 mm areas of the corneal epithelia was removed centrally with an Amoils epithelial scrubber. Nothing was done to the right eyes. The 15 rabbits were then inoculated intrastromally in both eyes with 25 μl of the bacterial dilution of approximately 10^3 cfu/eye of the bacteria. The bacterial inoculation of the left eyes was directly under the epithelial defect created by the Amoils epithelial scrubber. The epithelia were removed in the left corneas in order to determine whether this layer of the cornea is a barrier for Oligomer 2 penetration when compared to the right cornea with an intact epithelium. A colony count was done on the inoculum to determine the actual cfu inoculated. The rabbits were immediately treated with analgesia in the form of and intramuscular injection of ketoprofen, 1.5 mg/kg. After 4 hours, the 15 rabbits were divided into 4 treatment groups and one untreated control group sacrificed at the onset of therapy. Both eyes of each rabbit of the treatment groups were treated with one 37 μl drop of the coded solutions or control Saline or 1 drop of vancomycin from its dropper bottle. The Oligomer 2 concentrations were masked and labeled as 1 and 2. The masked concentrations were 1% Oligomer 2 and 0.5% Oligomer 2 but the specific concentrations of solutions were not known to the lab workers who carried out the experiment. The vancomycin and control (Tris-Buffered Saline) were not masked.
# Treatment was scheduled for every 15 minutes for 5 hours (21 total doses). However, PMX-1 and PMX-2 were exhausted after the 19th dose. Therefore, the actual treatment was 15 minutes for 4.5 hours (19 total doses). The 3 rabbits in group V were sacrificed 4 hours PI and large 9.5 mm buttons were removed from the corneas. These were placed in 1 ml of PBS and kept on ice. The corneal buttons were homogenized for 25 seconds on ice using the motorized homogenizer. After homogenization, colony counts were done on the homogenates using 5% sheep blood agar plates to determine the amount of bacteria contained in the corneas at the onset of therapy. Following the completion of therapy, the eyes were examined for clinical signs of infection. One hour after the final treatment, the treated rabbits (Groups I-IV) were sacrificed and large 9.5 mm buttons were removed from the corneas. These were placed in 1 ml of PBS and kept on ice. The corneal buttons were homogenized for 25 seconds on ice using the motorized homogenizer. After homogenization, colony counts were performed on the homogenates using 5% sheep blood agar plates to determine the amount of bacteria contained in the corneas after treatment. The next morning, the plates were counted and the number of cfu/eye of Staphylococcus aureus was determined for each cornea.
# Fifteen rabbits were received from Myrtles' Rabbitry, Thompson Station, TN.
# [3] = Example 11, intact epithelium, count 3
# [4] = Example 12, Ker-3 and Ker-4 combined, intact epithelium, count 6
# [5] = Example 11, abraded epithelium, count 3
# [6] = Example 12, Ker-3 and Ker-4 combined, abraded epithelium, count 6
smiles,measurement,setting,value
CC(C)=CCCC(C)=CCCC(C)=CCO [FARN-IE],"Log10 CFU/ml, Mean",[1]; intact epithelium,7.418 Log10 CFU/ml
same,"Log10 CFU/ml, Median",[1]; intact epithelium,7.330 Log10 CFU/ml and 7.3304 Log10 CFU/ml
same,Log10 CFU/ml,[1]; intact epithelium,7.655 Log10 CFU/ml and 7.27 Log10 CFU/ml and 7.33 Log10 CFU/ml
same,CFU/ml,[1]; intact epithelium,45200000 CFU/ml and 18600000 CFU/ml and 21400000 CFU/ml
same,Chemosis,[2]; intact epithelium,1.5 (2×) and 1.0
same,Conj.,[2]; intact epithelium,1.5
same,Corneal Edema,[2]; intact epithelium,1.0 (2×) and 0.5
same,Corneal Infiltrate,[2]; intact epithelium,2.0 (2×) and 1.5
same,Discharge,[2]; intact epithelium,1.5 (2×) and 1.0
same,Iritis,[2]; intact epithelium,1.5 (2×) and 2.0
same,Total Score,[2]; intact epithelium,9.0 and 7.0 and 9.5
same,"Total Ocular Score, Mean",[2]; [3],8.500
same,"Total Ocular Score, Median",[2]; [3],9.000
same,"Total Ocular Score, Mean",[2]; [4],9.000
same,"Total Ocular Score, Median",[2]; [4],9.250
same,Total Ocular Score,"[2]; Ker-3, intact epithelium",10.0 (2×) and 8.5
same,Total Ocular Score,"[2]; Ker-4, intact epithelium",9.0 and 7.0 and 9.5
CC(C)=CCCC(C)=CCCC(C)=CCO [FARN-AE],"Log10 CFU/ml, Mean",[1]; abraded epithelium,6.8762 Log10 CFU/ml
same,"Log10 CFU/ml, Median",[1]; abraded epithelium,6.8893 Log10 CFU/ml
same,Log10 CFU/ml,[1]; abraded epithelium,6.889 Log10 CFU/ml and 6.823 Log10 CFU/ml and 6.916 Log10 CFU/ml
same,CFU/ml,[1]; abraded epithelium,7750000 CFU/ml and 6650000 CFU/ml and 8250000 CFU/ml
same,Chemosis,[2]; abraded epithelium,2.0 and 1.5 (2×)
same,Conj.,[2]; abraded epithelium,2.0 and 1.5 (2×)
same,Corneal Edema,[2]; abraded epithelium,2.0 and 1.0 (2×)
same,Corneal Infiltrate,[2]; abraded epithelium,1.0 (2×) and 0.5
same,Discharge,[2]; abraded epithelium,2.0 and 1.5 (2×)
same,Iritis,[2]; abraded epithelium,2.0 and 1.5 (2×)
same,Total Score,[2]; abraded epithelium,11.0 and 7.5 and 8.0
same,"Total Ocular Score, Mean",[2]; [5],8.83
same,"Total Ocular Score, Median",[2]; [5],8.00
same,"Total Ocular Score, Mean",[2]; [6],9.083
same,"Total Ocular Score, Median",[2]; [6],8.500
same,Total Ocular Score,"[2]; Ker-3, abraded epithelium",11.0 and 8.5 (2×)
same,Total Ocular Score,"[2]; Ker-4, abraded epithelium",11.0 and 7.5 and 8.0
